Assay results from patent US20210032257A1, “(E)-1-(4-(DIMETHYLAMINO)BUT-2-ENOYL)PYRROLIDIN-3-YL 4-((3-ISOPROPYL-5-METHYLPYRAZOLO[1,5-A]PYRIMIDIN-7-YL)AMINO)PIPERIDINE-1-CARBOXYLATE FOR INHIBITING CDK7” (Eli Lilly and Company, priority 2017, published 2021).

What was measured:
[1] = target: CDK7/CyclinH/Mat1 (Homo sapiens, UniProt P50613); experiment: Biochemical assay for inhibition of CDK7/CyclinH/MAT1 (radiolabel filter binding)
Experimental: The purpose of this assay is to measure the ability of a compound of the invention to inhibit CDK7/CyclinH/Mat1 complex kinase activity.
The IC50 activity of the inhibitor is determined using radiolabel filter binding (FB) assays using the purified human recombinant enzyme in the presence of ATP//[3^3P]ATP and peptide substrate. The ATP concentrations chosen are at or near the enzyme Km for ATP.
Reactions are carried out in 96 well polystyrene plates in a final volume of 25 μL per well. 5 μL of test compound in 20% DMSO, 10 μL of substrate solution (ATP/33PATP and CDK7/9 tide) and 10 μL of enzyme solution are mixed. […] The enzyme solution is prepared for a final concentration of 1 nM CDK7/CyclinH/Mat1 enzyme [Proqinase 0366-0360-4 Lot 002)] diluted in kinase buffer. Test compounds are serially diluted 1:3 in 20% DMSO to create a 10 point curve at a starting concentration of 20 μM. 20% DMSO buffer alone without test compound is employed as high control (full activity in the absence of any inhibitor), 500 mM EDTA is used to determine the level of background in the absence of enzyme activity (low control). After mixing 5 μL of compounds with 10 μL of enzyme solution the plate is incubated for 0 or 180 minutes at 22° C. After that time the reaction is initiated by the addition of 10 μL substrate solution and incubated for 50 minutes at 22° C. The reaction is terminated by the addition of 80 μL of cold 10% ortophosphoric solution. The Filter Plates (opaque, non-sterile filter plates) are prewashed with 10 μL of 10% orthophosphoric solution to each well. 100 μL of the mixture are transferred to a phosphocellulose filter and incubated at room temperature for 45 minutes. Filter plates are washed with 200 μL 0.5% orthophosphoric acid 3 times on a filter plate processor. Incorporation of 33Pi (counting of “cpm”) is determined by adding 80 μL of MICROSCINT™ to each well and read on a counter after an hour. Data is processed through a [sequence] […] ® tool. Data are analyzed using a 4-parameter nonlinear logistic equation (four-parameter logistic concentration-response curve): Y=bot+[(top-bot)/1+(x/IC50)slope] where Y=% inhibition, X=concentration yielding y % inhibition, Bottom=minimum value of y attained by curve, Top=maximum value of y attained by curve and Slope=steepness of curve at IC50. % Inh=[(median Max−x/median Max−median Min)]·100
IC50: concentration of compound that reduces a given response (ligand binding, enzyme response) by 50%.

[2] = test system: cMyc in HCT116 cells; experiment: cMyc cell based Acumen assay; settings: Homo sapiens, HCT-116, 4 hours, read-out: Relative IC50 for cMyc
[3] = test system: phospho-carboxyl terminal domain (Ser2) in HCT116 cells; experiment: p-CTD (S2) cell based Acumen assay; settings: Homo sapiens, HCT-116, 4 hours, read-out: relative IC50 for phosphoCTD (S2)
Experimental: (§1) HCT116 cells (ATCC CCL-247) are cultured in McCoy's 5A Medium Modified media supplemented with 10% FBS, 1% NaPyr and 1% Pen/Strep and plated (prior to becoming 70% confluent) in 96-well flat-bottom plates at a density of 5,000 cells per well in 100 μL volume. The cells are then incubated overnight in a cell culture incubator (5% CO2, 95% Relative Humidity (RH) and 37° C.) and allowed to attach to the plate. The following morning the cells are dosed with compounds. Compound inhibitors are first solubilized at 60 μM in culture medium containing 0.6% DMSO. Subsequently compound serial dilutions (1:3) are prepared over a 6 μM to 0.00 μM range. […]
The following day cells are washed three times with PBS (100 μL/well) and incubated with 50 μL/well of secondary antibody (1:2000 dilution, Goat anti-rabbit IgM ALEXA FLUOR™ 488) in PBS for 1 hour at RT. […] Plates are analyzed on Acumen on FL2 (mean intensity), and FL3 (total intensity). Fluorescence plates are scanned with ACUMEN EXPLORER™ [Laser-scanning fluorescence microplate cytometer manufactured by TTP LABTECH LTD] to measure anti-phospho-carboxyl terminal domain at Serine 2 (pCTD). […]
The IC50 is determined by curve fitting to a four parameter logistic for each output using GENE DATA™.

[4] = target: CDK9/cyclinT1 (Homo sapiens, UniProt P50750); experiment: Assay for inhibition of CDK9/CyclinT1 kinase activity (radiolabel filter binding)
Experimental: The IC50 determination for CDK7 and CDK9 are determined as follows.
The IC50 activity of the inhibitor is determined using radiolabel filter binding (FB) assays using the purified human recombinant enzyme in the presence of ATP and peptide substrate. The ATP concentrations chosen are at or near the enzyme Km for ATP. Reactions are carried out in 96 well polystyrene plates in a final volume of 25 μL per well. 5 μL of test compound in 20% DMSO, 10 μL of substrate solution (ATP//[^33P]ATP and CDK7/9 tide) and 10 μL of enzyme solution are mixed. […] The enzyme solution is prepared for a final concentration of 7.5 nM CDK9/cyclinT1 enzyme [Proqinase 0371-0345-1 (Lot 004)] diluted in kinase buffer. Test compounds are serially diluted 1:3 in 20% DMSO to create a 10 point curve at a starting concentration of 2 μM. 20% DMSO buffer alone without test compound is employed as high control (full activity in the absence of any inhibitor), 500 mM EDTA is used to determine the level of background in the absence of enzyme activity (low control). After mixing 5 μL of compounds with 10 μL of enzyme solution the plate is incubated for 0 or 180 minutes at 22° C. After that time the reaction is initiated by the addition of 10 μL substrate solution and incubated for 60 minutes at 22° C. […] 80 μL of MICROSCINT™ is added to each well and read on a scintillation counter after an hour. […]

[5] = test system: phospho-carboxyl terminal domain (Ser5) in HCT116 cells; experiment: p-CTD (S5) cell based Acumen assay; settings: Homo sapiens, HCT-116, 4 hours, read-out: Relative IC50 for pCTD Ser5
Experimental: as §1, with “are” for “are then”, “following morning,” for “following morning”, “are” for “are first”, “a 60” for “a 6”, “to 0.003” for “to 0.00”
The following day cells are washed three times with PBS (100 μL/well) and incubated with 50 μL/well of secondary antibody (1:2000 dilution, Goat anti-rabbit IgM ALEXA FLUOR™ 488) in PBS for 1 hour at room temperature. […] Plates are analyzed on Acumen on FL2 (mean intensity), and FL3 (total intensity). Fluorescence plates are scanned with ACUMEN EXPLORER™ [Laser-scanning fluorescence microplate cytometer manufactured by TTP LABTECH LTD] to measure anti-phospho-carboxyl terminal domain at Serine 5 (pCTD). […] The IC50 is determined by curve fitting to a four parameter logistic for each output using GENE DATA™.

Sequence of CDK7/CyclinH/Mat1 (P50613 whole entry): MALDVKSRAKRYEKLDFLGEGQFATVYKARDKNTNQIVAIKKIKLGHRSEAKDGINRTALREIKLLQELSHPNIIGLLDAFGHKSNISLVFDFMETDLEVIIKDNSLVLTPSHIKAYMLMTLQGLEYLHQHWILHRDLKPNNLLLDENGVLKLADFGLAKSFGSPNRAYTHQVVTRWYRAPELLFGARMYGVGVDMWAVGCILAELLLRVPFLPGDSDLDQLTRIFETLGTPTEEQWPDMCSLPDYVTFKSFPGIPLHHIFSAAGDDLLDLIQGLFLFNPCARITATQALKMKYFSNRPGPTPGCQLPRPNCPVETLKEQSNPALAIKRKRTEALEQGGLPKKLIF
Sequence of CDK7/CyclinH/Mat1 (P51946 whole entry partner): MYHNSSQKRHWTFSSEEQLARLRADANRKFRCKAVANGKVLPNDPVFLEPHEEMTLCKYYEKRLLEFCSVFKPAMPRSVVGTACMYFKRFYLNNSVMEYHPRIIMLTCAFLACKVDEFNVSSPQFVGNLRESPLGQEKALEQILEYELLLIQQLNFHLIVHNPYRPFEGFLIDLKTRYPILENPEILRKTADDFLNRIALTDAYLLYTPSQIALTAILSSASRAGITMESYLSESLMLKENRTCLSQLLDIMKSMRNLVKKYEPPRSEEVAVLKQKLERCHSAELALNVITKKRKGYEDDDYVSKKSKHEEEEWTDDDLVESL
Sequence of CDK7/CyclinH/Mat1 (P51948 whole entry partner): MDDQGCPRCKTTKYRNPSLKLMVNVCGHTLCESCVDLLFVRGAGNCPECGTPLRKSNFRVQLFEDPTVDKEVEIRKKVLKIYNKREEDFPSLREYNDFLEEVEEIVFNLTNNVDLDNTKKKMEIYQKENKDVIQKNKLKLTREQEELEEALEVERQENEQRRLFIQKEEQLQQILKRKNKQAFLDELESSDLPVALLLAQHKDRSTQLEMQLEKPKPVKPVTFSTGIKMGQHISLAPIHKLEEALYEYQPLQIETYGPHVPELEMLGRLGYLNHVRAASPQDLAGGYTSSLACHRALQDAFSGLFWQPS
Sequence of CDK9/cyclinT1 (P50750 whole entry, the tested form may be a part): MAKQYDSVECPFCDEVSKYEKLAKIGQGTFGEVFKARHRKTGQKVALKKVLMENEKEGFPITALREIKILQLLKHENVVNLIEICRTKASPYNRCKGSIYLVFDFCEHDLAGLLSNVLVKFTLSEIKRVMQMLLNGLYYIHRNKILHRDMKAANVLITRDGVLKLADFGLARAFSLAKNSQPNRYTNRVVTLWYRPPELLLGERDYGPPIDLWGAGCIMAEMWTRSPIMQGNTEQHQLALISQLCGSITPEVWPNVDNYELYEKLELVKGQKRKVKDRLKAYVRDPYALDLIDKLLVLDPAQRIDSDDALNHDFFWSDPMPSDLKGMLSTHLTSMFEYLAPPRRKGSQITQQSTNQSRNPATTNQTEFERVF
Sequence of CDK9/cyclinT1 (O60563 whole entry partner, the tested form may be a part): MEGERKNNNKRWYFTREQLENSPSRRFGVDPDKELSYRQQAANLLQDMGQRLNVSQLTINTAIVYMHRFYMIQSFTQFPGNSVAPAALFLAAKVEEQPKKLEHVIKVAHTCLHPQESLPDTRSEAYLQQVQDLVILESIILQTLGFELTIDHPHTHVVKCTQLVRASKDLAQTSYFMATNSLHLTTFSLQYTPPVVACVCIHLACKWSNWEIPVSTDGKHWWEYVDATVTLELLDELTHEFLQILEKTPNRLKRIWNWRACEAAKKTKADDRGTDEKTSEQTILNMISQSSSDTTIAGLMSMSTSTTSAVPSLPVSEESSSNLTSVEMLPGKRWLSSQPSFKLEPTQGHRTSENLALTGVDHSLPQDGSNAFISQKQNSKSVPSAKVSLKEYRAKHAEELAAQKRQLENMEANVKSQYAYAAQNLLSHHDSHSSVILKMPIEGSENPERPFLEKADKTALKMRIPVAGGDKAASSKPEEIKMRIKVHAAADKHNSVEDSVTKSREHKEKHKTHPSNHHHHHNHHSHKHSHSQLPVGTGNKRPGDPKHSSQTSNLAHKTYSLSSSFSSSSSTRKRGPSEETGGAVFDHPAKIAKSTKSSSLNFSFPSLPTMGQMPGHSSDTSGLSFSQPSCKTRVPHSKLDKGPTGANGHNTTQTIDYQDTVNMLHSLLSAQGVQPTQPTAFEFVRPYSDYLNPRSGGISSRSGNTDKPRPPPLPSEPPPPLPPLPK

Work on `Cc1cc(NC2CCN(C(=O)O[C@@H]3CCN(C(=O)/C=C/CN(C)C)C3)CC2)n2ncc(C(C)C)c2n1` [Example 3, [(3R)-1-[(E)-4-(dimethylamino)but-2-enoyl]pyrrolidin-3-yl] 4-[(3-isopropyl-5-methyl-pyrazolo[1,5-a]pyrimidin-7-yl)amino]piperidine-1-carboxylate] yielded an IC50 ([1]; IC50 in CDK7, 3 hours of preincubation of CDK7 enzyme) of 5.06 nM, an IC50 ([1]; IC50 in CDK7, without preincubation) of 48.7 nM and an IC50 [2] of 57.3 nM. For the same molecule, the IC50 [3] was 3520 nM, the IC50 [4] was 2450 nM and the IC50 [5] was 198 nM.
